According to PubChem BioAssay AID248 (DTP/NCI, 2004):
Where “and” joins values, the source holds several entries; their conditions need not be identical. Equal values may be shown once. Toxic doses and inconclusive results are not listed. Cut-off read from the data, not from the text of the source: active = T/C of 150% or more; inactive = T/C below 125%.

System: L1210 leukemia ip in BDF1 mice, survival T/C
Experiment: NCI In Vivo Anticancer Drug Screen. Data for tumor model L1210 Leukemia (intraperitoneal) in B6D2F1 (BDF1) mice
Conditions: endpoint: mean survival time, higher = longer survival
Procedure, shortened: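 Transplantable tumor model; survival measured in treated vs vehicle control mice. Value = treated/control.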

[1] = dose: 50.0 mg/kg/injection, schedule: Q01DX009 (ip), vehicle: saline
[2] = dose: 75.0 mg/kg/injection, schedule: Q01DX001 (ip), vehicle: other
[3] = dose: 100.0 mg/kg/injection, schedule: Q01DX009 (ip), vehicle: saline
[4] = dose: 100.0 mg/kg/injection, schedule: Q04DX003 (ip), vehicle: saline
[5] = dose: 150.0 mg/kg/injection, schedule: Q01DX001 (ip), vehicle: other
[6] = dose: 200.0 mg/kg/injection, schedule: Q01DX009 (ip), vehicle: saline
[7] = dose: 200.0 mg/kg/injection, schedule: Q04DX003 (ip), vehicle: saline
[8] = dose: 300.0 mg/kg/injection, schedule: Q01DX001 (ip), vehicle: other
[9] = dose: 100.0 mg/kg/injection, schedule: Q01DX001 (ip), vehicle: carboxymethylcellulose (CMC)
[10] = dose: 200.0 mg/kg/injection, schedule: Q01DX001 (ip), vehicle: carboxymethylcellulose (CMC)
[11] = dose: 100.0 mg/kg/injection, schedule: Q01DX009 (ip), vehicle: Klucel (hydroxypropylcellulose) (HPC)
[12] = dose: 200.0 mg/kg/injection, schedule: Q01DX009 (ip), vehicle: Klucel (hydroxypropylcellulose) (HPC)
[13] = dose: 400.0 mg/kg/injection, schedule: Q01DX009 (ip), vehicle: Klucel (hydroxypropylcellulose) (HPC)
[14] = dose: 100.0 mg/kg/injection, schedule: Q04DX002 (ip), vehicle: Klucel (hydroxypropylcellulose) (HPC)
[15] = dose: 200.0 mg/kg/injection, schedule: Q04DX002 (ip), vehicle: Klucel (hydroxypropylcellulose) (HPC)
[16] = dose: 400.0 mg/kg/injection, schedule: Q04DX002 (ip), vehicle: Klucel (hydroxypropylcellulose) (HPC)
[17] = dose: 100.0 mg/kg/injection, schedule: Q04DX002 (ip), vehicle: saline with Tween-80
[18] = dose: 200.0 mg/kg/injection, schedule: Q04DX002 (ip), vehicle: saline with Tween-80
[19] = dose: 100.0 mg/kg/injection, schedule: Q01DX001 (ip), vehicle: saline
[20] = dose: 200.0 mg/kg/injection, schedule: Q01DX001 (ip), vehicle: saline
[21] = dose: 75.0 mg/kg/injection, schedule: Q01DX001 (ip), vehicle: carboxymethylcellulose (CMC)
[22] = dose: 50.0 mg/kg/injection, schedule: Q01DX009 (ip), vehicle: saline with Tween-80
[23] = dose: 100.0 mg/kg/injection, schedule: Q01DX009 (ip), vehicle: saline with Tween-80
[24] = dose: 200.0 mg/kg/injection, schedule: Q01DX009 (ip), vehicle: saline with Tween-80
[25] = dose: 100.0 mg/kg/injection, schedule: Q04DX003 (ip), vehicle: saline with Tween-80
[26] = dose: 200.0 mg/kg/injection, schedule: Q04DX003 (ip), vehicle: saline with Tween-80
[27] = dose: 400.0 mg/kg/injection, schedule: Q04DX003 (ip), vehicle: saline with Tween-80

Measured: T/C

NCCOc1ccc([N+](=O)[O-])cc1Cl
inactive: [1] 93 % of control | [2] 96 % of control | [3] 98 % of control | [4] 121 % of control | [5] 100 % of control | [6] 96 % of control | [7] 103 % of control | [8] 96 % of control

COC(=O)CC(Br)CBr (stereo unspecified)
inactive: [9] 100 % of control | [10] 100 % of control

C/C(=N\Nc1nc2ccccc2o1)c1ccncc1
inactive: dose: 50.0 mg/kg/injection, schedule: Q01DX009 (ip), vehicle: Klucel (hydroxypropylcellulose) (HPC) 105 % of control | [11] 105 % of control | [12] 116 % of control | [13] 108 % of control

CCCCCCCCCCCCCCCCCC1=NCCN1CCN
inactive: dose: 25.0 mg/kg/injection, schedule: Q01DX009 (ip), vehicle: saline 111 % of control | dose: 25.0 mg/kg/injection, schedule: Q04DX003 (ip), vehicle: saline 97 % of control | [1] 97 % of control | dose: 50.0 mg/kg/injection, schedule: Q04DX003 (ip), vehicle: saline 92 % of control | dose: 100.0 mg/kg/injection, schedule: Q01DX001 (ip), vehicle: acetone 100 % of control | [4] 101 % of control

NC(=O)c1cccc[n+]1Cc1cc(=O)[nH]c(=O)[nH]1
inactive: [4] 93 % of control | [7] 101 % of control | dose: 400.0 mg/kg/injection, schedule: Q04DX003 (ip), vehicle: saline 89 % of control

C=C1c2ccccc2N(CC)C1(COc1ccc(Cl)cc1)OC(=O)c1cccc(Cl)c1 (stereo unspecified)
inactive: [14] 100 % of control | [15] 95 % of control | [16] 110 % of control

COc1ccccc1NC(=S)NCc1ccco1
inactive: [17] 89 % of control | [18] 89 % of control

CC1CCCC1=O (stereo unspecified)
inactive: dose: 50.0 mg/kg/injection, schedule: Q01DX001 (ip), vehicle: saline 96 % of control | [19] 93 % of control | [20] 93 % of control | dose: 400.0 mg/kg/injection, schedule: Q01DX001 (ip), vehicle: saline 93 % of control

CC(=O)Nc1ccc(OC(=O)Nc2ccccc2F)cc1
inactive: [11] 98 % of control | [12] 101 % of control | [13] 106 % of control

C#CCCOC(=O)Nc1ccccc1
inactive: [11] 96 % of control | [12] 96 % of control | [13] 102 % of control

CCN(CC)CCN(C#N)Cc1ccccc1
inactive: [21] 102 % of control

Cc1c(C(=O)O)cc([N+](=O)[O-])cc1[N+](=O)[O-]
inactive: [22] 103 % of control | [23] 97 % of control | [24] 93 % of control

CCCCc1cn(C(C)=O)nn1
inactive: [17] 106 % of control | [18] 100 % of control

c1nc2c([nH]1)CCCC2
inactive: dose: 25.0 mg/kg/injection, schedule: Q01DX001 (ip), vehicle: carboxymethylcellulose (CMC) 106 % of control | dose: 25.0 mg/kg/injection, schedule: Q01DX009 (ip), vehicle: carboxymethylcellulose (CMC) 103 % of control and 91 % of control | dose: 25.0 mg/kg/injection, schedule: Q04DX002 (ip), vehicle: carboxymethylcellulose (CMC) 94 % of control and 102 % of control | dose: 25.0 mg/kg/injection, schedule: Q04DX003 (ip), vehicle: carboxymethylcellulose (CMC) 95 % of control | dose: 50.0 mg/kg/injection, schedule: Q01DX001 (ip), vehicle: carboxymethylcellulose (CMC) 102 % of control | dose: 50.0 mg/kg/injection, schedule: Q01DX009 (ip), vehicle: carboxymethylcellulose (CMC) 94 % of control and 92 % of control | dose: 50.0 mg/kg/injection, schedule: Q04DX002 (ip), vehicle: carboxymethylcellulose (CMC) 94 % of control and 104 % of control | dose: 50.0 mg/kg/injection, schedule: Q04DX003 (ip), vehicle: carboxymethylcellulose (CMC) 105 % of control | dose: 100.0 mg/kg/injection, schedule: Q04DX003 (ip), vehicle: carboxymethylcellulose (CMC) 92 % of control

C[N+](C)(C)/N=C1\CC2CCC1C2 (stereo unspecified)
inactive: [19] 98 % of control | [20] 101 % of control

COC(=O)c1ccc[n+](Cc2c(Cl)cccc2Cl)c1
inactive: dose: 75.0 mg/kg/injection, schedule: Q01DX001 (ip), vehicle: saline 95 % of control | dose: 150.0 mg/kg/injection, schedule: Q01DX001 (ip), vehicle: saline 96 % of control

CC(C)(C)OC(=O)C(N)CC(N)=O (stereo unspecified)
inactive: [11] 106 % of control | [14] 103 % of control | [12] 106 % of control | [15] 88 % of control | [13] 98 % of control | [16] 98 % of control

CC(=O)OCC1OCC(OC(C)=O)C(OC(C)=O)C1OC(C)=O (stereo unspecified)
inactive: [25] 94 % of control | [26] 98 % of control | [27] 98 % of control

O=[N+]([O-])c1ccc(O)c([N+](=O)[O-])c1
inactive: dose: 3.35 mg/kg/injection, schedule: Q01DX Z (ip), vehicle: carboxymethylcellulose (CMC) 94 % of control | dose: 10.32 mg/kg/injection, schedule: Q01DX Z (ip), vehicle: carboxymethylcellulose (CMC) 95 % of control | dose: 13.4 mg/kg/injection, schedule: Q01DX Z (ip), vehicle: carboxymethylcellulose (CMC) 98 % of control | dose: 17.86 mg/kg/injection, schedule: Q01DX Z (ip), vehicle: carboxymethylcellulose (CMC) 94 % of control | dose: 26.8 mg/kg/injection, schedule: Q01DX Z (ip), vehicle: carboxymethylcellulose (CMC) 88 % of control | [19] 94 % of control

CCC1(CCC(C)C)C(=O)NC(=S)N(C)C1=O (stereo unspecified)
inactive: [21] 89 % of control | [2] 97 % of control | dose: 150.0 mg/kg/injection, schedule: Q01DX001 (ip), vehicle: carboxymethylcellulose (CMC) 89 % of control | [5] 103 % of control | dose: 300.0 mg/kg/injection, schedule: Q01DX001 (ip), vehicle: carboxymethylcellulose (CMC) 91 % of control | [8] 121 % of control

CCCNC(=O)C1C2C=CC(C2)C1C(=O)NCCC (stereo unspecified)
inactive: [25] 91 % of control | [26] 91 % of control | [27] 91 % of control

COc1ccccc1C1CC(C(C)(C)C)CCC1OS(=O)(=O)c1ccc(C)cc1 (stereo unspecified)
inactive: [1] 90 % of control | [3] 92 % of control | dose: 100.0 mg/kg/injection, schedule: Q04DX003 (ip), vehicle: acetone 102 % of control | [6] 95 % of control | dose: 200.0 mg/kg/injection, schedule: Q04DX003 (ip), vehicle: acetone 96 % of control | dose: 400.0 mg/kg/injection, schedule: Q04DX003 (ip), vehicle: acetone 94 % of control

CCOC(=O)C(CNc1cccc2ccncc12)C(=O)OCC
inactive: [22] 109 % of control | [23] 94 % of control | [24] 115 % of control

CCCCC(CC)CCC(C)O (stereo unspecified)
inactive: [22] 96 % of control | [23] 94 % of control | [25] 108 % of control | [26] 95 % of control

[C-]#[N+]C(C)(c1ccccc1)c1ccccc1
inactive: dose: 12.5 mg/kg/injection, schedule: Q01DX001 (ip), vehicle: acetone 92 % of control | dose: 25.0 mg/kg/injection, schedule: Q01DX001 (ip), vehicle: acetone 95 % of control | dose: 50.0 mg/kg/injection, schedule: Q01DX001 (ip), vehicle: acetone 110 % of control

O=c1c2ccccc2nc(-c2ccccc2)n1/N=C/c1cccnc1
inactive: [11] 90 % of control | [12] 98 % of control | [13] 104 % of control

CCCCCCCCCCN=C(N)N/C(N)=N/S(=O)(=O)c1ccc(OCCCCCCCCC)cc1
inactive: [14] 97 % of control | [15] 89 % of control | [16] 89 % of control

NC(=O)/C=C\c1csc2ccccc12
inactive: [9] 100 % of control | [10] 94 % of control | dose: 400.0 mg/kg/injection, schedule: Q01DX001 (ip), vehicle: carboxymethylcellulose (CMC) 94 % of control

O=C1OC(=O)C2C(c3ccccc3)C=CC(c3ccccc3)C12 (stereo unspecified)
inactive: [22] 98 % of control | [23] 108 % of control | [4] 92 % of control | [24] 98 % of control | [7] 108 % of control
